Experiments:
Assay in all cases: relative viability (nuclei count vs DMSO), 5 days (fraction); higher = more cells survive
Zebularine + OSI-027 = compound: O=c1ncccn1[C@@H]1O[C@H](CO)[C@@H](O)[C@H]1O [Zebularine] + COc1cccc2cc(-c3nc([C@H]4CC[C@H](C(=O)O)CC4)n4ncnc(N)c34)[nH]c12 [OSI-027] (partner 0.5 µM)
Method in brief: (§1)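 Lung cancer cell lines in 1536-well plates got either a single drug or a fixed anchor-drug dose together with five library-drug doses (not always all listed) in √10 steps, by pin tool, on the day after seeding. Nuclei were counted after 5 days, and relative viability is the treated-to-vehicle ratio of nuclei counts. Values are medians of duplicate plates.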

Zebularine + Trametinib = compound: O=c1ncccn1[C@@H]1O[C@H](CO)[C@@H](O)[C@H]1O [Zebularine] + CC(=O)Nc1cccc(-n2c(=O)n(C3CC3)c(=O)c3c(Nc4ccc(I)cc4F)n(C)c(=O)c(C)c32)c1 [Trametinib] (partner 0.02 µM)
Method in brief: as §1

BI-D1870 + Olaparib = compound: CC(C)CCN1c2nc(Nc3cc(F)c(O)c(F)c3)ncc2N(C)C(=O)C1C [BI-D1870] + O=C(c1cc(Cc2n[nH]c(=O)c3ccccc23)ccc1F)N1CCN(C(=O)C2CC2)CC1 [Olaparib] (partner 8 µM)
Method in brief: as §1

Zebularine + Crizotinib = compound: O=c1ncccn1[C@@H]1O[C@H](CO)[C@@H](O)[C@H]1O [Zebularine] + C[C@@H](Oc1cc(-c2cnn(C3CCNCC3)c2)cnc1N)c1c(Cl)ccc(F)c1Cl [Crizotinib] (partner 1 µM)
Method in brief: as §1

Cell Line	relative viability (Zebularine + OSI-027; first compound 1 µM)	relative viability (Zebularine + OSI-027; first compound 3.162 µM)	relative viability (Zebularine + OSI-027; first compound 10 µM)	relative viability (Zebularine + OSI-027; first compound 31.62 µM)	relative viability (Zebularine + OSI-027; first compound 100 µM)	relative viability (Zebularine + Trametinib; first compound 1 µM)	relative viability (Zebularine + Trametinib; first compound 3.162 µM)	relative viability (Zebularine + Trametinib; first compound 10 µM)	relative viability (Zebularine + Trametinib; first compound 31.62 µM)	relative viability (Zebularine + Trametinib; first compound 100 µM)	relative viability (BI-D1870 + Olaparib; first compound 0.04 µM)	relative viability (BI-D1870 + Olaparib; first compound 0.1265 µM)	relative viability (BI-D1870 + Olaparib; first compound 1.265 µM)	relative viability (BI-D1870 + Olaparib; first compound 4 µM)	relative viability (Zebularine + Crizotinib; first compound 1 µM)	relative viability (Zebularine + Crizotinib; first compound 3.162 µM)	relative viability (Zebularine + Crizotinib; first compound 10 µM)	relative viability (Zebularine + Crizotinib; first compound 31.62 µM)	relative viability (Zebularine + Crizotinib; first compound 100 µM)	relative viability (BI-D1870 + Olaparib; first compound 0.4 µM)
NCI-H1648	0.27	0.314	0.244	0.253	0.249	0.628	0.469	0.435	0.421	0.419	0.919	0.691	0.633	0.846						
SK-MES-1	0.707	0.606	0.454	0.514	0.288	0.558	0.581	0.491	0.503	0.305	0.77	0.561	0.363	0.19	1.07	1.03	0.645	0.648	0.325	0.731
HCC-366	1.02	0.831	0.558	0.807	0.253	0.425	0.402	0.274	0.313	0.0973	0.503	0.348	0.42	0.229	0.774	0.637	0.2	0.265	0.133	0.295
201T	0.602	0.691	0.517	0.592	0.378	0.793	0.767	0.647	0.741	0.719	0.901	0.806	0.851	0.856	1.08	1.03	0.861	1.11	1.01	0.809
HCC-827	1.06	0.779	0.675	0.609	0.366	0.535	0.574	0.492	0.546	0.404	0.71	0.649	0.634	0.626	1.07	0.907	0.785	0.647	0.339	0.594
NCI-H647	0.717	0.676	0.363	0.186	0.16	0.53	0.508	0.184	0.116	0.112	0.747	0.447	0.496	0.359	1.18	0.981	0.254	0.142	0.228	0.579
NCI-H2023	0.471	0.437	0.314	0.457	0.302	0.595	0.636	0.367	0.523	0.308	0.504	0.444	0.44	0.252	0.807	0.569	0.611	0.389	0.201	0.4
NCI-H520	0.281	0.23	0.266	0.298	0.239	0.651	0.698	0.544	0.314	0.229	0.336	0.355	0.246	0.162	0.784	0.717	0.429	0.372	0.261	0.295

— the supplement of paper PMC10307832
